No end group written: not given here.
Legend:
[1] = biological target: T1, Orphanin FQ receptor (OFQR) (Rattus norvegicus, UniProt P35370); test: Inhibition of [^125I] Y14-OFQ17 binding / specific OFQ binding in Cos-7 cells transfected with normal OFQR gene; conditions: Cos-7 cells transfected with OFQR gene; for IC50: read-out: IC50, concentration dependent inhibition of [^125I] Y14-OFQ17 binding
T1 construct: expressed in transfected cells; host or cells: Cos-7

colonic contractions = test: Colonic contractions after infusion of peptide; format: in vivo
[2] = tested on: circular muscle strips of distal colon; test: Spontaneous contraction of circular muscle strips of distal colon from rats with postoperative ileus, in vitro; set-up: species or system rat; conditions: strips from rats with PI, 4 h after surgery
Description: In vitro and in vivo colonic motility studies were performed using a known rat model of PI. Rats equipped with a colonic cannula underwent a sham operation or laparotomy plus simple cecum manipulation. Circular muscle strips of distal colon were studied in vitro 4 h after surgery. Cecum manipulation reduced spontaneous colonic muscle contraction by 50% compared to sham operation. […] Similarly, OFQ (10^−7 mol/L) reversed the inhibitory effects; contraction increased 450±60% over basal. […] ATP in myenteric neurons increased 2.5-fold, as measured by quinacrine immunofluorescence. In response to electrical field stimulation, ATP release (luciferase assay) from colonic tissue after cecum manipulation was 50% more than after sham operation. In vivo measurement of colonic transit using carmine migration was performed 4 h after cecum manipulation. In sham-operated rats, carmine migrated 90.8±6.5% of the colon length in 2 h. Cecum manipulation slowed transit 68±5% compared to sham operation. OFQ dose-dependently reversed delayed colonic transit evoked by cecum manipulation (0.5 and 1 nmol/L OFQ improved transit to 76±4% and 94±3%). […] These changes contribute to delayed colonic transit. OFQ, a potent inhibitor of purinergic transmission, reversed PI in rats.

OFQ receptor = biological target: T2, OFQ receptor (Rattus norvegicus, UniProt P35370); format: cell-based; conditions: Cos-7 cells transfected with OFQ receptor gene
T2 construct: in Cos-7 cells transfected with OFQ receptor gene; expressed in transfected cells; host or cells: Cos-7
T2 sequence (P35370 whole entry): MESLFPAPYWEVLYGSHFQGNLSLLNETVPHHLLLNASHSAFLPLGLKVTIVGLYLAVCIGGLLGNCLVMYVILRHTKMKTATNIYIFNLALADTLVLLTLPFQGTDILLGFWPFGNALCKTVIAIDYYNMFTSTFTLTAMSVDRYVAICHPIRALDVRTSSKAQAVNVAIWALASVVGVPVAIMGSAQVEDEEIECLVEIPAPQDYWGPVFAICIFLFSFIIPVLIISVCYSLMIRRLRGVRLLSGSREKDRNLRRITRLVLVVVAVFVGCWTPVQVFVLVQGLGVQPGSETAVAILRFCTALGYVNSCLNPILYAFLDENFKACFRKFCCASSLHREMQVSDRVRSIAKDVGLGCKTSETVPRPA
Description: Orphanin FQ is a neuropeptide that structurally resembles an opioid peptide. […] While not being limited to any particular mechanism, the present invention contemplates that Orphanin FQ stimulates peristalsis and enhances colonic transit by inhibiting purinergic pathways in myenteric plexus. To delineate the molecular interactions between OFQR and its ligands, Cos-7 cells were transfected with normal or chimeric OFQR genes. […] The ability of Orphanin FQ and related peptides to inhibit cAMP production in Cos-7 cells was evaluated. […] Dynorphin encoding nucleic acids and gene products are known in the art, see for example, NM_024411, NM_133828, NM_174139, NM_018863, M10088, AH002816, K02268, K02267, Alo34562, U58500, and U38912.

colonic transit = test: Colonic transit (geometric center) after subcutaneous administration; format: in vivo

T1 sequence (P35370 whole entry): as above

β endorphin 31: opioid peptide tested for effect on OFQ binding
effect on OFQ binding [1]: no effect

replacement of Arg^8 by L-alanin: Orphanin FQ with Arg8 replaced by L-alanine (FGGFTGAAKSARKLANQ; Nociceptin; UniProt Q13519 130-146, looked up, variant R8A)
Orphanin FQ activity of substituted analogues (colonic contractions; in vivo): complete loss of activity

Nc1c(S(=O)(=O)O)cc(Nc2ccc(Nc3nc(Cl)nc(Nc4cccc(S(=O)(=O)O)c4)n3)c(S(=O)(=O)O)c2)c2c1C(=O)c1ccccc1C2=O [reactive blue 2]
enhancement of spontaneous contraction over basal ([2]; 3×10^−5 mol/L): 287±20%

Dynorphin 17: Dynorphin peptide tested for effect on OFQ binding
effect on OFQ binding [1]: no effect

FGGFTGARKSA [OFQ11]
IC50 [1]: 5000 nM

substitution by tyrosine: Orphanin FQ with Phe in position 1 substituted by tyrosine (YGGFTGARKSARKLANQ; Nociceptin; UniProt Q13519 130-146, looked up, variant F1Y)
Orphanin FQ activity of substituted analogues (colonic contractions; in vivo): no loss of activity

FGGFTGAKKSARKLANQ [R8K]
IC50 [1]: 0.1 nM

Orphanin FQ(1–12): Orphanin FQ fragment, amino acids 1–12 (FGGFTGARKSAR; Nociceptin; UniProt Q13519 130-141, looked up, fragment)
potency relative to Orphanin FQ(1–17), times less potent (colonic contractions; in vivo): 100 times

Pertussis toxin
effect on the inhibitory action of OFQ on cAMP production (OFQ receptor): reversed the inhibitory action of OFQ

FGGFTGARKSARCLANQ [K13C]
IC50 [1]: 0.1 nM

Dyn A: Dynorphin A, peptide with structural homology to Orphanin FQ (YGGFLRRIRPKLKWDNQ; Dynorphin A(1-17); UniProt P01213 207-223, looked up)
type of contractions induced (colonic contractions; infusion 100 nmol/kg/min): evoked non-migrating simultaneous contractions
colonic transit, geometric center (colonic transit; 30 nmol/kg): 3.14±0.21
colonic transit, geometric center (colonic transit; 100 nmol/kg): 2.42±0.17

Cc1ccc(C(=O)Nc2ccc(S(=O)(=O)O)c3cc(S(=O)(=O)O)cc(S(=O)(=O)O)c23)cc1NC(=O)c1cccc(NC(=O)Nc2cccc(C(=O)Nc3cc(C(=O)Nc4ccc(S(=O)(=O)O)c5cc(S(=O)(=O)O)cc(S(=O)(=O)O)c45)ccc3C)c2)c1 [Suramin]
enhancement of spontaneous contraction over basal ([2]; 10^−4 mol/L): 210±15%

PPADGS
enhancement of spontaneous contraction over basal ([2]; 3×10^−5 mol/L): 5±4%

Orphanin FQ(1–13): Orphanin FQ fragment, amino acids 1–13
potency in stimulating contractions compared with full peptide Orphanin FQ(1–17) (colonic contractions; in vivo): same potency
